# Results: PubChem BioAssay AID2060893 (Molecular Pharmacology Branch, DTP, NCI, 2025)
# Several values for one entry are separate records, joined by “and”; a condition that tells them apart may be missing. Identical values can stand only once.
# Tested on: K86415-001-R-J1-PDC complex spheroids, viability
# Test: Anticancer human tumor K86415-001-R-J1-PDC patient-derived lung adenocarcinoma cell line growth inhibition [RAS]
# Settings: for viability, T/C: stronger effect = lower value
# How it was run: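 Multi-cell-type spheroids: tumor cells plus HUVEC endothelial cells and mesenchymal stem cells. RAS-pathway inhibitors were combined with targeted agents, each dosed in half-log steps down from clinical Cmax, or from 10 microM when Cmax was unknown.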
# [1] = curve of first compound, second compound 0.00316 µM
# [2] = curve of first compound, second compound 0.01 µM
# [3] = curve of first compound, second compound 0.0316 µM
# [4] = curve of first compound, second compound 0.1 µM
# [5] = curve of first compound, second compound 0.316 µM
# [6] = curve of first compound, second compound 1 µM
# [7] = second compound 0.00316 µM, first compound 0.0316 µM
# [8] = second compound 0.00316 µM, first compound 0.1 µM
# [9] = second compound 0.00316 µM, first compound 0.316 µM
# [10] = second compound 0.00316 µM, first compound 1 µM
# [11] = second compound 0.00316 µM, first compound 3.16 µM
# [12] = second compound 0.00316 µM, first compound 10 µM
# [13] = second compound 0.01 µM, first compound 0.0316 µM
# [14] = second compound 0.01 µM, first compound 0.1 µM
# [15] = second compound 0.01 µM, first compound 0.316 µM
# [16] = second compound 0.01 µM, first compound 1 µM
# [17] = second compound 0.01 µM, first compound 3.16 µM
# [18] = second compound 0.01 µM, first compound 10 µM
# [19] = second compound 0.0316 µM, first compound 0.0316 µM
# [20] = second compound 0.0316 µM, first compound 0.1 µM
# [21] = second compound 0.0316 µM, first compound 0.316 µM
# [22] = second compound 0.0316 µM, first compound 1 µM
# [23] = second compound 0.0316 µM, first compound 3.16 µM
# [24] = second compound 0.0316 µM, first compound 10 µM
# [25] = second compound 0.1 µM, first compound 0.0316 µM
# [26] = second compound 0.1 µM, first compound 0.1 µM
# [27] = second compound 0.1 µM, first compound 0.316 µM
# [28] = second compound 0.1 µM, first compound 1 µM
# [29] = second compound 0.1 µM, first compound 3.16 µM
# [30] = second compound 0.1 µM, first compound 10 µM
# [31] = second compound 0.316 µM, first compound 0.0316 µM
# [32] = second compound 0.316 µM, first compound 0.1 µM
# [33] = second compound 0.316 µM, first compound 0.316 µM
# [34] = second compound 0.316 µM, first compound 1 µM
# [35] = second compound 0.316 µM, first compound 3.16 µM
# [36] = second compound 0.316 µM, first compound 10 µM
# [37] = second compound 1 µM, first compound 0.0316 µM
# [38] = second compound 1 µM, first compound 0.1 µM
# [39] = second compound 1 µM, first compound 0.316 µM
# [40] = second compound 1 µM, first compound 1 µM
# [41] = second compound 1 µM, first compound 3.16 µM
# [42] = second compound 1 µM, first compound 10 µM
# 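Note: spheroids exposed to agents for seven days before readout.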
smiles,measurement,setting,value
Cc1nc(N2CCC3(CC2)COC(C)C3N)c(CO)nc1Sc1ccnc(N)c1Cl (stereo not drawn) + C=CC(=O)N1CCN(c2nc(OCC3CCCN3C)nc3c(F)c(-c4nc(N)cc(C)c4C(F)(F)F)c(Cl)cc23)C(C)C1,IC50,[1],< 31.6 nM
same,IC50,[2],< 31.6 nM
same,IC50,[3],< 31.6 nM
same,IC50,[4],< 31.6 nM
same,IC50,[5],< 31.6 nM
same,IC50,[6],< 31.6 nM
same,"viability, T/C",[7],11.5%
same,"viability, T/C",[8],8.95%
same,"viability, T/C",[9],6.72%
same,"viability, T/C",[10],5.03%
same,"viability, T/C",[11],3.59%
same,"viability, T/C",[12],4.75%
same,"viability, T/C",[13],12.1%
same,"viability, T/C",[14],8.08%
same,"viability, T/C",[15],5.96%
same,"viability, T/C",[16],4.7%
same,"viability, T/C",[17],4.74%
same,"viability, T/C",[18],5.17%
same,"viability, T/C",[19],9.15%
same,"viability, T/C",[20],6.95%
same,"viability, T/C",[21],4.4%
same,"viability, T/C",[22],3.81%
same,"viability, T/C",[23],3.74%
same,"viability, T/C",[24],3.64%
same,"viability, T/C",[25],8.22%
same,"viability, T/C",[26],5.86%
same,"viability, T/C",[27],5.7%
same,"viability, T/C",[28],3.75%
same,"viability, T/C",[29],4.37%
same,"viability, T/C",[30],3.87%
same,"viability, T/C",[31],7.37%
same,"viability, T/C",[32],6.35%
same,"viability, T/C",[33],4.21%
same,"viability, T/C",[34],4.09%
same,"viability, T/C",[35],4.08%
same,"viability, T/C",[36],3.28%
same,"viability, T/C",[37],7.46%
same,"viability, T/C",[38],7.12%
same,"viability, T/C",[39],6.04%
same,"viability, T/C",[40],4.71%
same,"viability, T/C",[41],4.06%
same,"viability, T/C",[42],4.08%
CC1(O)CCCC1n1c(=O)c(C(F)F)cc2cnc(NC3CCN(S(C)(=O)=O)CC3)nc21 (stereo not drawn) + C=CC(=O)N1CCN(c2nc(OCC3CCCN3C)nc3c(F)c(-c4nc(N)cc(C)c4C(F)(F)F)c(Cl)cc23)C(C)C1,IC50,[1],< 31.6 nM
same,IC50,[2],< 31.6 nM
same,IC50,[3],< 31.6 nM
same,IC50,[4],< 31.6 nM
same,IC50,[5],< 31.6 nM
same,IC50,[6],< 31.6 nM
same,"viability, T/C",[7],14.8%
same,"viability, T/C",[8],16.9%
same,"viability, T/C",[9],17.3%
same,"viability, T/C",[10],20.2%
same,"viability, T/C",[11],28.1%
same,"viability, T/C",[12],5.41%
same,"viability, T/C",[13],13.1%
same,"viability, T/C",[14],12.6%
same,"viability, T/C",[15],12.4%
same,"viability, T/C",[16],12.3%
same,"viability, T/C",[17],18.6%
same,"viability, T/C",[18],5.34%
same,"viability, T/C",[19],12.2%
same,"viability, T/C",[20],10.1%
same,"viability, T/C",[21],10.1%
same,"viability, T/C",[22],14.8%
same,"viability, T/C",[23],16.2%
same,"viability, T/C",[24],4.92%
same,"viability, T/C",[25],12.1%
same,"viability, T/C",[26],10.8%
same,"viability, T/C",[27],10.5%
same,"viability, T/C",[28],11.5%
same,"viability, T/C",[29],19.4%
same,"viability, T/C",[30],4.11%
same,"viability, T/C",[31],11.4%
same,"viability, T/C",[32],11.6%
same,"viability, T/C",[33],11.4%
same,"viability, T/C",[34],11.4%
same,"viability, T/C",[35],16.2%
same,"viability, T/C",[36],5.89%
same,"viability, T/C",[37],10.4%
same,"viability, T/C",[38],10.3%
same,"viability, T/C",[39],13.7%
same,"viability, T/C",[40],14.7%
same,"viability, T/C",[41],18.9%
same,"viability, T/C",[42],5.93%
Nc1ccn(C2OC(CO)C(O)C2(F)F)c(=O)n1 (stereo not drawn) + C=CC(=O)N1CCN(c2nc(OCC3CCCN3C)nc3c(F)c(-c4nc(N)cc(C)c4C(F)(F)F)c(Cl)cc23)C(C)C1,IC50,[1],< 3.16 nM
same,IC50,[2],< 3.16 nM
same,IC50,[3],< 3.16 nM
same,IC50,[4],< 3.16 nM
same,IC50,[5],< 3.16 nM
same,IC50,[6],< 3.16 nM
same,"viability, T/C","second compound 0.00316 µM, first compound 0.00316 µM",18.1%
same,"viability, T/C","second compound 0.00316 µM, first compound 0.01 µM",16.6%
same,"viability, T/C",[7],14.9%
same,"viability, T/C",[8],14.7%
same,"viability, T/C",[9],17.8%
same,"viability, T/C",[10],17.2%
same,"viability, T/C","second compound 0.01 µM, first compound 0.00316 µM",16.1%
same,"viability, T/C","second compound 0.01 µM, first compound 0.01 µM",12.8%
same,"viability, T/C",[13],9.45%
same,"viability, T/C",[14],11.5%
same,"viability, T/C",[15],9.75%
same,"viability, T/C",[16],11.1%
same,"viability, T/C","second compound 0.0316 µM, first compound 0.00316 µM",11%
same,"viability, T/C","second compound 0.0316 µM, first compound 0.01 µM",12.7%
same,"viability, T/C",[19],10.5%
same,"viability, T/C",[20],9.28%
same,"viability, T/C",[21],11%
same,"viability, T/C",[22],10.4%
same,"viability, T/C","second compound 0.1 µM, first compound 0.00316 µM",9.91%
same,"viability, T/C","second compound 0.1 µM, first compound 0.01 µM",9.83%
same,"viability, T/C",[25],9.05%
same,"viability, T/C",[26],9.1%
same,"viability, T/C",[27],11.7%
same,"viability, T/C",[28],11.4%
same,"viability, T/C","second compound 0.316 µM, first compound 0.00316 µM",11%
same,"viability, T/C","second compound 0.316 µM, first compound 0.01 µM",10.5%
same,"viability, T/C",[31],11%
same,"viability, T/C",[32],8.77%
same,"viability, T/C",[33],11.1%
same,"viability, T/C",[34],8.63%
same,"viability, T/C","second compound 1 µM, first compound 0.00316 µM",10.2%
same,"viability, T/C","second compound 1 µM, first compound 0.01 µM",11.9%
same,"viability, T/C",[37],10.3%
same,"viability, T/C",[38],11.7%
same,"viability, T/C",[39],11.7%
same,"viability, T/C",[40],8.61%
C[C@@H](NC(=O)c1ncnc(N)c1Cl)c1ncc(C(=O)Nc2cc(C(F)(F)F)c(Cl)cn2)s1,"viability, T/C",compound 0.0316 µM,113% [middle of 4 runs]
same,"viability, T/C",compound 0.1 µM,113% [middle of 4 runs]
same,"viability, T/C",compound 0.316 µM,97.1% and 109% (2×) and 92.8%
same,"viability, T/C",compound 1 µM,87.8% [middle of 4 runs]
same,"viability, T/C",compound 3.16 µM,77.2% [middle of 4 runs]
same,"viability, T/C",compound 10 µM,64.7% [middle of 4 runs]
same,IC50,curve of compound,> 10000 nM
